Data reported in PubChem BioAssay (NCI).
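Abbreviation: GI50, concentration required for 50% inhibition of growth. At the TGI there is no net growth.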

Tests used:
Test in all cases: growth of human tumour cells (NCI), 384-well format
[1] = tested on: IGROV1 ovarian
[2] = tested on: NCI-H322M lung
[3] = tested on: T-47D breast
[4] = tested on: NCI-H522 lung
[5] = tested on: HOP-62 NSCLC
[6] = tested on: HCT-116 colon
[7] = tested on: MDA-MB-468 breast
[8] = tested on: M14 melanoma
[9] = tested on: NCI-H460 NSCLC
[10] = tested on: OVCAR-3 ovarian
[11] = tested on: SK-OV-3 ovarian
[12] = tested on: HT29 colon
[13] = tested on: MOLT-4 leukemia
[14] = tested on: RXF 393 renal
[15] = tested on: CAKI-1 renal
[16] = tested on: OVCAR-4 ovarian
[17] = tested on: UACC-62 melanoma
[18] = tested on: SN12C renal
[19] = tested on: SNB-75 CNS
[20] = tested on: SF-295 CNS
[21] = tested on: U251 glioblastoma
[22] = tested on: NCI-H23 lung
[23] = tested on: SK-MEL-5 melanoma
[24] = tested on: SR leukemia
[25] = tested on: MALME-3M melanoma
[26] = tested on: SK-MEL-28 melanoma
[27] = tested on: KM12 colon
[28] = tested on: RPMI-8226 leukemia
[29] = tested on: SW-620 colon
[30] = tested on: NCI-H226 lung
[31] = tested on: SF-539 CNS
[32] = tested on: HS 578T breast
[33] = tested on: CCRF-CEM leukemia
[34] = tested on: SK-MEL-2 melanoma
[35] = tested on: TK-10 renal
[36] = tested on: HCT-15 colon
[37] = tested on: SNB-19 CNS
[38] = tested on: HL-60(TB) leukemia
[39] = tested on: SF-268 CNS
[40] = tested on: DU-145 prostate
[41] = tested on: EKVX NSCLC
[42] = tested on: A498 renal
[43] = tested on: K-562 leukemia
[44] = tested on: PC-3 prostate
[45] = tested on: COLO 205 colon
[46] = tested on: NCI/ADR-RES ovarian
[47] = tested on: LOX IMVI melanoma
[48] = tested on: MDA-MB-231 breast
[49] = tested on: MCF7 breast
[50] = tested on: UACC-257 melanoma
[51] = tested on: MDA-MB-435 melanoma
[52] = tested on: BT-549 breast
[53] = tested on: ACHN renal
[54] = tested on: A549 NSCLC

Cc1noc2c1-c1ccccc1C(c1ccc(Cl)cc1)=N[C@H]2CC(N)=O
GI50 [1]: 0.564 µM | TGI [1]: 30.1 µM | GI50 [2]: 3.01 µM | TGI [2]: > 100 µM | GI50 [3]: 6.48 µM | TGI [3]: 82 µM | GI50 [4]: 0.04 µM | TGI [4]: 0.455 µM | GI50 [5]: 0.4 µM | TGI [5]: 34.1 µM | GI50 [6]: 13.5 µM | TGI [6]: 54.7 µM | GI50 [7]: 0.685 µM | TGI [7]: 23 µM | GI50 [8]: 13.6 µM | TGI [8]: > 100 µM | GI50 [9]: 19 µM | TGI [9]: > 100 µM | GI50 [10]: 0.812 µM | TGI [10]: 29.8 µM | GI50 [11]: 0.491 µM | TGI [11]: 38.8 µM | GI50 [12]: 0.508 µM | TGI [12]: 59.2 µM | GI50 [13]: 0.549 µM | TGI [13]: 15.8 µM | GI50 [14]: 11.6 µM | TGI [14]: 34.2 µM | GI50 [15]: 0.227 µM | TGI [15]: 54.3 µM | GI50 [16]: 0.367 µM | TGI [16]: 3.29 µM | GI50 [17]: 0.268 µM | TGI [17]: 42.1 µM | GI50 [18]: 24.2 µM | TGI [18]: > 100 µM | GI50 [19]: 15.7 µM | TGI [19]: > 100 µM | GI50 [20]: 18.8 µM | TGI [20]: > 100 µM | GI50 [21]: 10.2 µM | TGI [21]: > 100 µM | GI50 [22]: 1.14 µM | TGI [22]: 26.8 µM | GI50 [23]: 1.03 µM | TGI [23]: 21.3 µM | GI50 [24]: 0.0478 µM | TGI [24]: 1.43 µM | GI50 [25]: 16.4 µM | TGI [25]: 61.4 µM | GI50 [26]: 21.4 µM | TGI [26]: > 100 µM | GI50 [27]: 6.93 µM | TGI [27]: 44.3 µM | GI50 [28]: 0.298 µM | TGI [28]: 12.5 µM | GI50 [29]: 21.8 µM | TGI [29]: 71.7 µM | GI50 [30]: 12.2 µM | TGI [30]: 44 µM | GI50 [31]: 13 µM | TGI [31]: > 100 µM | GI50 [32]: 0.292 µM | TGI [32]: 28.3 µM | GI50 [33]: 0.629 µM | TGI [33]: 22.9 µM | GI50 [34]: 34.2 µM | TGI [34]: 53.2 µM | GI50 [35]: 0.504 µM | TGI [35]: 34.3 µM | GI50 [36]: 0.442 µM | TGI [36]: 19.5 µM | GI50 [37]: 4.91 µM | TGI [37]: > 100 µM | GI50 [38]: 0.102 µM | TGI [38]: 0.229 µM | GI50 [39]: 18.1 µM | TGI [39]: 67.7 µM | GI50 [40]: 23.6 µM | TGI [40]: > 100 µM | GI50 [41]: 36.2 µM | TGI [41]: > 100 µM | GI50 [42]: 1.41 µM | TGI [42]: 94.4 µM | GI50 [43]: 0.697 µM | TGI [43]: 28 µM | GI50 [44]: 0.723 µM | TGI [44]: > 100 µM | GI50 [45]: 0.78 µM | TGI [45]: 29 µM | GI50 [46]: 0.639 µM | TGI [46]: 20.4 µM | GI50 [47]: 0.473 µM | TGI [47]: 18.1 µM | GI50 [48]: 0.612 µM | TGI [48]: 94.4 µM | GI50 [49]: 0.312 µM | TGI [49]: 17 µM | GI50 [50]: 16.4 µM | TGI [50]: > 100 µM | GI50 [51]: 6.55 µM | TGI [51]: 43.5 µM | GI50 [52]: 0.292 µM | TGI [52]: 18.7 µM | GI50 [53]: 11.5 µM | TGI [53]: > 100 µM | GI50 [54]: 10.3 µM | TGI [54]: > 100 µM
